Source: ChEMBL document CHEMBL6103597, “Opto-Epigenetic Regulation of Histone Arginine Asymmetric Dimethylation via Type I Protein Arginine Methyltransferase Inhibition” (J Med Chem, 2025)
Calls of active or inactive are those of the source. The calls are words filed in the database; no cut-off is given here.

Experiments:
[1] = molecular target: Protein arginine N-methyltransferase 6 (Homo sapiens) (UniProt Q96LA8); assay: Inhibition of PRMT6 in human A549 cells assessed as decrease in H3R2me2a level at 0.1 uM incubated for 24 hrs by Western blot analysis; format: cell-based
Sequence of Protein arginine N-methyltransferase 6 (Homo sapiens) (Q96LA8 whole entry, looked up): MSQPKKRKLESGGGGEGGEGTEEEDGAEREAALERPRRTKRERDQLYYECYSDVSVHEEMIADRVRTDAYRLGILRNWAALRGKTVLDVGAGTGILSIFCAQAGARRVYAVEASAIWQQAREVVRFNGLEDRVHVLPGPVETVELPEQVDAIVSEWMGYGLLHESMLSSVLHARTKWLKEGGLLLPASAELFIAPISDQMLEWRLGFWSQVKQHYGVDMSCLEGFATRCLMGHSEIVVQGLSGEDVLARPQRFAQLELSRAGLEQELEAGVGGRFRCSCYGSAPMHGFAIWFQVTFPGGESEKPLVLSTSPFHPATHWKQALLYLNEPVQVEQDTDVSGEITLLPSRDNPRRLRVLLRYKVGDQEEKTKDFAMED

[2] = molecular target: Protein arginine N-methyltransferase 6 (Homo sapiens) (UniProt Q96LA8); assay: Inhibition of PRMT6 in human A549 cells assessed as decrease in H4R3me2a level at 0.1 uM incubated for 24 hrs by Western blot analysis; format: cell-based
A549 [3] = assay: Antiproliferative activity against human A549 cells assessed as cell viability at 10 uM incubated for 24 hrs followed by light irradiation at 420 nm for 4 mins and measured after 48 hrs by MTT assay relative to control; format: functional; conditions: A549, light or radiation study, 72.07 h, time 4324 min, read-out: Activity
A549 [4] = assay: Effect on DNA replication-related pathway in human A549 cells at 0.1 uM incubated for 24 hrs by GSEA analysis; format: functional, cell-based
A549 [5] = assay: Effect on DNA replication-related pathway in human A549 cells at 0.1 uM incubated for 24 hrs followed by light irradiation at 420 nm for 4 mins by GSEA analysis; format: functional, cell-based; conditions: time 1444.0 min
HUVEC = assay: Cytotoxicity against HUVEC cells at 50 uM incubated for 72 hrs under dark condition; format: toxicity, cell-based; conditions: human
A549 [6] = assay: Effect on transcriptomic profile in human A549 cells at 0.1 uM incubated for 24 hrs by RNA-sequencing analysis; format: functional, cell-based
A549 [7] = assay: Effect on transcriptomic profile in human A549 cells assessed as differentially expressed genes at 0.1 uM incubated for 24 hrs followed by light irradiation at 420 nm for 4 mins by RNA-sequencing analysis relative to control; format: functional; conditions: time 1444 min, 24.07 h
[8] = Photochemical property of compound assessed as hypsochromic shift by measuring maximum absorption peak wavelength at 10 uM upon visible light irradiation at 420 nm by UV-Vis absorption spectroscopy; format: physicochemical
A549 [9] = assay: Effect on transcriptomic profile in human A549 cells at 0.1 uM incubated for 24 hrs followed by light irradiation at 420 nm for 4 mins by RNA-sequencing analysis; format: functional, cell-based; conditions: time 1444.0 min
[10] = Prodrug photolysis assessed as drug degradation at 10 uM upon light irradiation at 420 nm for upto 4 mins by HPLC analysis; format: ADME
[11] = Stability in PBS buffer at pH 7.4 at 37 degreeC assessed as compound remaining under dark condition measured for 72 hrs by HPLC analysis; format: physicochemical; conditions: read-out: Stability
A549 [12] = assay: Effect on cell cycle-related pathway in human A549 cells at 0.1 uM incubated for 24 hrs followed by light irradiation at 420 nm for 4 mins by GSEA analysis; format: functional, cell-based; conditions: time 1444.0 min
A549 [13] = assay: Antiproliferative activity against human A549 cells assessed as cell viability at 10 uM incubated for 72 hrs by MTT assay relative to control; format: functional; conditions: read-out: Activity
A549 [14] = assay: Effect on cell cycle-related pathway in human A549 cells at 0.1 uM incubated for 24 hrs by GSEA analysis; format: functional, cell-based
[15] = Photochemical property of compound assessed as maximum fluorescence emission wavelength at 10 uM upon visible light irradiation at 420 nm by UV-Vis absorption spectroscopy; format: physicochemical

Structure (SMILES) | inhibition [1] | inhibition [2] | viability at 10 µM (A549 [3]) | Activity (A549 [4]) | Activity (A549 [5]) | Activity (HUVEC) | Activity (A549 [6]) | Activity (A549 [7]) | Activity [8] | Activity (A549 [9]) | Stability [10] | remaining at 72 h [11] | Activity (A549 [12]) | viability at 10 µM (A549 [13]) | Activity (A549 [14]) | Activity [15]
CC(C)Oc1ccc(-c2c[nH]cc2CN(C)CCN)cc1 | Active | Active |  |  |  |  |  |  |  |  |  |  |  |  |  | 
CCN(CC)c1ccc2c(COC(=O)NCCN(C)Cc3c[nH]cc3-c3ccc(OC(C)C)cc3)cc(=O)oc2c1 |  |  | 79.4% | No effect | Active; Downregulation Of Gene Sets Observed | Non-toxic | No effect | ~56% | 380 nm | Active; About 5.4:1 Ratio Between Down-Regulated And Upregulated Genes Observed | Unstable | > 75% | Active; Downregulation Of Gene Sets Observed | 94.6% | No effect | 470 nm
